This is an account of results in patent publication US8486897B2, “C-aryl glycoside compounds for the treatment of diabetes and obesity” (TFCHEM, priority 2008, dated 2013).

The target of one assay is T1, Human SGLT2 (Homo sapiens, UniProt P31639).
T1 construct: pCMV6 vector containing the full length human SGLT2 gene
T1 sequence (P31639 1-672): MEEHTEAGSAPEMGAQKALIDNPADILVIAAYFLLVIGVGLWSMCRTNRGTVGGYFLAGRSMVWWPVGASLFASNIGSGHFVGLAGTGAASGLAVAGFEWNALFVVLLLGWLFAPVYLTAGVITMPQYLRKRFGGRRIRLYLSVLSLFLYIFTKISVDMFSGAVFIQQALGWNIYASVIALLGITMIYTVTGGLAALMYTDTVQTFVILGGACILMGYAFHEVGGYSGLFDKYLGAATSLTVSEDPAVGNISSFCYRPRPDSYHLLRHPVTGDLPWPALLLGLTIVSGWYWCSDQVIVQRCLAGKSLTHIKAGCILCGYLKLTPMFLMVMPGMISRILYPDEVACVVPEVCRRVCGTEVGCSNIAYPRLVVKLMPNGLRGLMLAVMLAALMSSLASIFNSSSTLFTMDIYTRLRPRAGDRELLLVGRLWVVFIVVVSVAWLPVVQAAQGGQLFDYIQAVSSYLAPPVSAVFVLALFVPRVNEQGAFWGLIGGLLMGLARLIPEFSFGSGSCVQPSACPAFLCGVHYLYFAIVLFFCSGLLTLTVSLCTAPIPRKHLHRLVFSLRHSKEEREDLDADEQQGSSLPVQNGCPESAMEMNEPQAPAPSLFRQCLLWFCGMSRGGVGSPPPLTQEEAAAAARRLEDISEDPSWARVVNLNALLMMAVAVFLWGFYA
The experiment in a line: Cell-based assay for inhibition of uptake of 14C-methyl-α-D-glucopyranoside (14C-AMG) in CHO-K1 cells stably expressing human SGLT2. The settings on record: 14C-AMG uptake, 1 hour at 37° C.; for inhibition at 10 µM: compound at 10 μM; for inhibition at 100 µM: compound at 100 μM. From the text: The compounds of the invention have been tested for their ability to inhibit Human Sodium Glucose Co-Transporter 2 (Human SGLT2) according to the following protocol:
(§1) 1. Preparation of Human SGLT1 and Human SGLT2 Expression Vectors:
• Human SGLT1 (Genbank M24847) cDNA was cloned from a pCMV6 vector containing the full length human SGLT1 gene (Origene NM 000343, Cat. #: RC221312) and Human SGLT2 (Genbank M95549) cDNA was cloned from a pCMV6 vector containing the full length human SGLT2 gene (Origene NM_003041, Cat. #: RC224822). The full cDNAs were subcloned independently into mammalian cell expression plasmid pSPI1 and sequenced to verify the integrity of the construct. 2. Preparation of CHO-K1 Cells Stably Expressing Human SGLT1 and Human SGLT2: • Transfection of CHO-K^1 cells was performed using 2.5 ug of pSPI1-SGLT1 or pSPI1-SGLT2 plasmid with about 6 ul of Lipofectamin 2000 (Invitrogen, Cat. #: 11668-019) in about 1.5×10^5 CHO-K1 cells using 12-well cell culture plate (Becton Dickinson, Cat. #: 353003) in the presence of DMEM medium (Dulbecco's Modified Eagle Medium) (Gibco, Cat. #: 11885-092) containing 10% FBS (Sigma, Cat. #: F1051-500mL). Transfectants were then selected in the presence of the antibiotic G418 (GIBCO, Cat. #: 11811-031) at final concentration of 750 ug/ml. Individual clones for both SGLT1 and SGLT2 were then characterized using the functional cell-based assay described below. 3. Cell-Based Assay for Inhibition of Uptake of methyl-α-D-glucopyranoside by Human SGLT1 and Human SGLT2: • Selected cell lines stably expressing human SGLT1 or human SGLT2 were then used for functional analysis of sodium dependent glucose uptake. Sodium-dependent D-glucose transport was determined by measuring the uptake of 14C-methyl-α-D-glucopyranoside (14C-AMG) with a specific activity of 250-350mCi (9.25-13.0 GBq)/mmol (PerkinElmer, Cat. #: NEC 659250UC). The assay buffer used to assess sodium-dependent D-glucose transport was Krebs-Ringer-Henseleit (KRH) solution containing 4.7 mM KCl, 1.2 mM MgCl2, 2.2 mM CaCl2, 10 mM Hepes pH 7.4 with Tris (Sigma). For sodium (Na^+) conditions the Assay Buffer containing 120 mM NaCl (Na^+) was used to assess sodium-dependent D-glucose transport (KRH-Na^+). For sodium free conditions, KRH solution containing 120 mM N-methyl-glucamine (NMG) instead of NaCl (Na^+) was used to assess sodium-independent D-glucose transport (KRH-NMG). All buffer chemicals were purchased from Sigma. • In brief, the cells were plated at a density of 40,000 cells per well in a 96-well plate in DMEM media and allowed to grow for 24 hours. Cells were subsequently washed twice (2×100 μL) with KRH buffer cells containing NMG. […] Scintillation cocktail (1004) was added and the 14C-AMG radioisotope counted in a MicroBeta Trilux (PerkinElmer).

In another assay the target is T2, Human SGLT1 (Homo sapiens, UniProt P13866).
T2 construct: pCMV6 vector containing the full length human SGLT1 gene
T2 sequence (P13866 1-664): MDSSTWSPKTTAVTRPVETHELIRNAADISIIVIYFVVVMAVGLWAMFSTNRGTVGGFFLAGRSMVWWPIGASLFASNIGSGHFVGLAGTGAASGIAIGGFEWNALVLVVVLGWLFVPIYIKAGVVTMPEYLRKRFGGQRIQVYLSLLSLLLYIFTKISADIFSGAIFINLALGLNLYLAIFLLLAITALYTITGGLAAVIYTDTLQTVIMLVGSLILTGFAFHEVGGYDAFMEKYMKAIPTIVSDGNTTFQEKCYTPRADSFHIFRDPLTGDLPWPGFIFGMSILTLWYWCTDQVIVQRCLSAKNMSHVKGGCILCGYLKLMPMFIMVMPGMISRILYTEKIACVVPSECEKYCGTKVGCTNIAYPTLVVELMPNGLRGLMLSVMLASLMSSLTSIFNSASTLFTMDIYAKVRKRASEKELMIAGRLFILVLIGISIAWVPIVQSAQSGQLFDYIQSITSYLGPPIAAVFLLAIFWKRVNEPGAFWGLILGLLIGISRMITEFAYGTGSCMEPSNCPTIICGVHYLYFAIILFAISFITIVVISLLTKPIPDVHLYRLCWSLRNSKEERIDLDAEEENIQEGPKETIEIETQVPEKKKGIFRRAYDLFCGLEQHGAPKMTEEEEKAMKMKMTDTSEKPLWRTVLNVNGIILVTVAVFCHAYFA
As to the kind of experiment: Cell-based assay for inhibition of uptake of 14C-methyl-α-D-glucopyranoside (14C-AMG) in CHO-K1 cells stably expressing human SGLT1. The note with it: compound at 100 μM, 14C-AMG uptake, 1 hour at 37° C.
Excerpt: as §1
• Human SGLT1 (Genbank M24847) cDNA was cloned from a pCMV6 vector containing the full length human SGLT1 gene (Origene NM 000343, Cat. #: RC221312) and Human SGLT2 (Genbank M95549) cDNA was cloned from a pCMV6 vector containing the full length human SGLT2 gene (Origene NM_003041, Cat. #: RC224822). The full cDNAs were subcloned independently into mammalian cell expression plasmid pSPI1 and sequenced to verify the integrity of the construct. 2. Preparation of CHO-K1 Cells Stably Expressing Human SGLT1 and Human SGLT2: • Transfection of CHO-K^1 cells was performed using 2.5 ug of pSPI1-SGLT1 or pSPI1-SGLT2 plasmid with about 6 ul of Lipofectamin 2000 (Invitrogen, Cat. #: 11668-019) in about 1.5×10^5 CHO-K1 cells using 12-well cell culture plate (Becton Dickinson, Cat. #: 353003) in the presence of DMEM medium (Dulbecco's Modified Eagle Medium) (Gibco, Cat. #: 11885-092) containing 10% FBS (Sigma, Cat. #: F1051-500mL). […] Sodium-dependent D-glucose transport was determined by measuring the uptake of 14C-methyl-α-D-glucopyranoside (14C-AMG) with a specific activity of 250-350mCi (9.25-13.0 GBq)/mmol (PerkinElmer, Cat. #: NEC 659250UC). […] Scintillation cocktail (1004) was added and the 14C-AMG radioisotope counted in a MicroBeta Trilux (PerkinElmer).

One may read the inhibition as the percentage by which the read-out fell short of the control. On Human SGLT2, `OC[C@H]1O[C@@H](C(F)(F)c2ccccc2)[C@H](O)[C@@H](O)[C@@H]1O` [Compound 100] gave an inhibition at 10 µM of 30% and an inhibition at 100 µM of 79%. The same compound had an inhibition at 100 µM against Human SGLT1 of 46%.

At Human SGLT2, `CCc1ccc(Cc2ccccc2C(F)(F)[C@@H]2O[C@H](CO)[C@@H](O)[C@H](O)[C@H]2O)cc1` [Compound 104] returned an inhibition at 10 µM of 40% and an inhibition at 100 µM of 56%. This compound returned an inhibition at 100 µM at Human SGLT1 of 48%.
